# How the values were obtained:
# EMB resistant Mtb strain = type: cell-based; conditions: 16 hr drug treatment, MOI=1, 4 hr post-infection, RT-PCR
# RIF-resistant Mtb strain = type: cell-based; conditions: 16 hr drug treatment, MOI=1, 4 hr post-infection, RT-PCR
structure (smiles),measurement,setting,value
"CC[C@@H](CO)NCCN[C@@H](CC)CO [EMB, Ethambutol]",SML generation after drug treatment,EMB resistant Mtb strain,not decreased
same,Reduction in SML generation compared to the untreated control,RIF-resistant Mtb strain,approximately 10 fold

# From patent US8501400B2, “Methods and compositions for determining the pathogenic status of infectious agents” (priority 2007, dated 2013)
